Values after ≈ are worked out from the molar mass of the structure shown.
Legend:
[1] = tested on: E. coli YHP05 strain; assay: MIC measurement to cinnamaldehyde of E. coli; assay type: cell-based; conditions: LB liquid medium, 37° C., 16 hrs
[2] = tested on: E. coli MG1655 strain; assay: microbe, parasite or virus in culture; conditions: Escherichia coli, MG1655, 16 h, read-out: phenol concentration at which growth was totally inhibited (MIC)
[3] = tested on: E. coli YHP05; assay: Screening of transformed E. coli living in cinnamaldehyde MIC (artificial ncRNA expression); assay type: cell-based; conditions: transformed E. coli YHP05, LB medium comprising 350 ug/ml cinnamaldehyde, 1 mM IPTG, 16 hrs
Method: In order to develop an artificial ncRNA to make E. coli survived at 300 ug/ml of cinnamaldehyde concentration, E. coli YHP05 was transformed by the plasmid library which can express genome-originated artificial ncRNA constructed in the Example 3-5, and after transformed ˜500,000 colonies were cultured for 16 hrs, they were diluted to 1:100 and cultured for 16 hrs again in a LB medium comprising 350 ug/ml cinnamaldehyde, 1 mM IPTG, and the result was shown in FIG. 6 and table 6.

In the case of `O=CC=Cc1ccccc1` [cinnamaldehyde], the OD600 ([1]; 100 ug/ml cinnamaldehyde) is reported as 3.08, the OD600 ([1]; 150 ug/ml cinnamaldehyde) is reported as 2.74 and the OD600 ([1]; 200 ug/ml cinnamaldehyde) is reported as 2.25. It also gave an OD600 ([1]; 250 ug/ml cinnamaldehyde) of 0.341, an OD600 ([1]; 300 ug/ml cinnamaldehyde) of 0.091 and an OD600 ([1]; 400 ug/ml cinnamaldehyde) of 0.083. The OD600 ([1]; 500 ug/ml cinnamaldehyde) was 0.062 and the MIC ([1]; Escherichia coli, YHP05STRAIN, read-out: cinnamaldehyde concentration at which cells were not grown (MIC)) was 300 µg/mL (≈ 2270 µM).

Molecule `Oc1ccccc1` [phenol] has an MIC [2] of 20 mM (≈ 1880 µg/mL).

In the case of “clone 8: artificial ncRNA improving resistance to cinnamaldehyde, genome insert of SEQ ID NO: 19 (DNA AATCCCTCAATGATGCCTGGAATCGCTCTTTTA; expressed or natural sequence)”, the OD600 [3] is reported as 0.32.

Work on “clone 9: artificial ncRNA improving resistance to cinnamaldehyde, genome insert of SEQ ID NO: 20 (DNA GGCGCTGCATCCGCGTTATAGCCGCGCCCAGTATGACCGGGTAATGGA; expressed or natural sequence)” yielded an OD600 [3] of 0.2403.

B1: clone 7: artificial ncRNA improving resistance to cinnamaldehyde, genome insert of SEQ ID NO: 18 (nucleic acid)
DNA: AACGCAGGGCGTTCGAAAGCAGGTTGCTTAGCGCCCGACGCAGCATCAGCGGATCGCCCGCGACCTGACACTTGTCGCCAACAAACCGCAACTCCACGCCGCGATCTTCCGCTAACGCCTCGAAAAAATCGAACACTTTGCCGACTTCATCCGCCAG
modifications: cinnamic aldehyde_reg_06
B1 was tested, and the OD600 [3] was 0.411.

B2: clone 6: artificial ncRNA improving resistance to cinnamaldehyde, genome insert of SEQ ID NO: 17 (nucleic acid)
DNA: TATTCATTGCTTCTACCCGTGCCTCGCTTTCTGTATTACGAAATTGTCCCAACACATGTGCCAGCCGATAAAAACCCAC
modifications: expressed or natural sequence
B2 was tested, and the OD600 [3] was 0.2757.
